Experimental data: ChEMBL document CHEMBL1146017, “Dipeptide vinyl sultams: synthesis via the Wittig-Horner reaction and activity against papain, falcipain-2 and Plasmodium falciparum” (Bioorg Med Chem Lett, 2006)
Calls of active or inactive are those of the source. No cut-off for these calls is given here.

Key:
[1] = molecular target: T1, Falcipain 2 (Plasmodium falciparum, UniProt Q9N6S8); assay: Inhibition of recombinant falcipain2
T1 sequence (Q9N6S8 whole entry): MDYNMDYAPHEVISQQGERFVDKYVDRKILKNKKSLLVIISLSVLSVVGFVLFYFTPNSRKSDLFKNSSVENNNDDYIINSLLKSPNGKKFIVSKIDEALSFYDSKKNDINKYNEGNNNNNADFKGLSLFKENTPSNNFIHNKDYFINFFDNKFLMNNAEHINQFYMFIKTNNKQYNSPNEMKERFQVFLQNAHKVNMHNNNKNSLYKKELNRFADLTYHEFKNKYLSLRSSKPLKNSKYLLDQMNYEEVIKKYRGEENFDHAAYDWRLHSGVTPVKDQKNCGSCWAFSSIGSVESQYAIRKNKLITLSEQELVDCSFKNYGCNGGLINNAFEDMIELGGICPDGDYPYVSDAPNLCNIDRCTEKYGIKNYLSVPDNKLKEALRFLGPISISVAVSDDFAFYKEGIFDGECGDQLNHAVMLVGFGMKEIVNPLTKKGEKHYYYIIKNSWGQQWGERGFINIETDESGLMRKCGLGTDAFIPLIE

[2] = test system: Plasmodium falciparum; assay: Inhibition of Plasmodium falciparum W2; format: functional, organism-based
[3] = molecular target: T2, Papain (Carica papaya) (UniProt P00784); assay: Inhibition of papain at 50 uM
T2 sequence (whole entry): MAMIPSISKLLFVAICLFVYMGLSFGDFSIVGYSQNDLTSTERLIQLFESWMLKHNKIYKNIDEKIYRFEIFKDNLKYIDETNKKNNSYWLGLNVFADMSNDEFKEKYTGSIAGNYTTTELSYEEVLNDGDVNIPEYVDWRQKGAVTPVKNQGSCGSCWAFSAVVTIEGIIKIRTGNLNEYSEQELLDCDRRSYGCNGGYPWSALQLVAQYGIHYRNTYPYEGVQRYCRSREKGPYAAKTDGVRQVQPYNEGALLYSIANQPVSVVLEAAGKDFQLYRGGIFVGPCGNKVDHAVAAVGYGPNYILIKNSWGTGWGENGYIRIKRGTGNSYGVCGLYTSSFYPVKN

[4] = molecular target: T2, Papain (Carica papaya); assay: Inhibition of papain upto 50 uM after 30 min

| SMILES | IC50 [1] | IC50 [2] | inhibition [3] | inhibition [4] |
| --- | --- | --- | --- | --- |
| CC(C)C[C@H](NC(=O)N1CCOCC1)C(=O)N[C@H](/C=C1\CCCN(c2ccccc2)S1(=O)=O)Cc1ccccc1 | 31.4 µM | > 10 µM | – | – |
| CC(C)(C)OC(=O)N[C@H](/C=C1\CCCN(Cc2ccccc2)S1(=O)=O)Cc1ccccc1 | – | – | inactive | – |
| CC(C)C[C@H](NC(=O)N1CCOCC1)C(=O)N[C@H](/C=C1\CCN(Cc2ccccc2)S1(=O)=O)Cc1ccccc1 | 48.4 µM | > 10 µM | – | – |
| CC(=O)N[C@@H](Cc1ccccc1)C(=O)N[C@H](/C=C1\CCCN(c2ccccc2)S1(=O)=O)Cc1ccccc1 | 26.5 µM | > 10 µM | – | inactive |

More lines, in order of falling IC50 [1], values ahead:

| IC50 [1] | IC50 [2] | inhibition [3] | inhibition [4] | SMILES |
| --- | --- | --- | --- | --- |
| 23.6 µM | > 10 µM | inactive | – | CC(C)C[C@H](NC(=O)N1CCOCC1)C(=O)N[C@H](/C=C1/CCCN(Cc2ccccc2)S1(=O)=O)Cc1ccccc1 |
| 13.7 µM | 7.8 µM | inactive | – | CC(C)C[C@H](NC(=O)N1CCOCC1)C(=O)N[C@H](/C=C1\CCCN(Cc2ccccc2)S1(=O)=O)Cc1ccccc1 |
